Measured values taken from US5604242A, “Heterocyclic chemistry” (Novo Nordisk A/S, priority 1993, dated 1997).
Where a name gives a salt, the structure may show the parent alone.

Tested on: [^3 H]-GABA uptake
Test: in vitro inhibition of [3H]-GABA uptake (method of Fjalland), rat cortical tissue homogenate
Format: biochemical, Male wistar rat
Conditions: 40 mM tris HCl buffer pH 7.5, 60 minutes at 30° C.
Procedure: Values for in vitro inhibition of [^3 H]-GABA uptake for the invention compounds were assessed essentially by the method of Fjalland (Acta Pharmacol. Toxicol. 1978, 42, 73-76). Male wistar rat cortical tissue was gently homogenized by hand using a glass/PTFE homogenizer in 10 volumes of 0.32M sucrose. Incubation was performed in a 40 mM tris HCl buffer (pH 7.5 at 30° C.) containing […], 4 mM MgSO4, […] and 10 mM glucose, for 60 minutes at 30° C. Values for inhibition of GABA uptake for some representative compounds are recorded in Table I.

Row | IC50 | SMILES
1 | 325 nM | O=C(O)[C@@H]1CCCN(CCOCc2ccccc2Cc2ccccc2)C1 [Example 2, (R)-1-(2-(2-Benzylbenzyloxy)ethyl)-3-piperidinecarboxylic acid hydrochloride]
2 | 4500 nM | O=C(O)C1CCCN(CCOCCCc2ccccc2)C1 (stereo not drawn) [Example 1, 1-(2-(3-Phenyl-1-propyloxy)ethyl)-3-piperidinecarboxylic acid hydrochloride]
3 | 6400 nM | O=C(O)[C@@H]1CCCN(CCOCc2ccc3ccccc3c2-c2ccccc2)C1 [Example 3, (R)-1-(2-((1-Phenyl-2-naphthyl)methoxy)ethyl)-3-piperidinecarboxylic acid hydrochloride]
4 | 2000 nM | O=C(O)[C@@H]1CCCN(CCOC/C(=C\c2ccccc2)c2ccccc2)C1 [Example 6, Z-(R)-1-(2-((2,3-Diphenyl-2-propen-1-yl)oxy)ethyl)-3-piperidinecarboxylic acid hydrochloride]
5 | 338 nM | O=C(O)[C@@H]1CCCN(CCOCc2ccccc2-c2ccccc2)C1 [Example 4, (R)-1-(2-(2-Phenylbenzyloxy)ethyl)-3-piperidinecarboxylic acid hydrochloride]
6 | 495 nM | O=C(O)[C@@H]1CCCN(CCOC/C(=C/c2ccccc2)c2ccccc2)C1 [Example 5, E-(R)-1-(2-((2,3-Diphenyl-2-propen-1-yl)oxy)ethyl)-3-piperidinecarboxylic acid hydrochloride]

Tested on: GABA uptake
Test: not given
Conditions: Yunger et al., J.Pharm.Exp.Ther. 1984, 228, 109; cited from earlier work

Row | SMILES | oral activity as inhibitor of GABA uptake
7 | O=C(O)C1CCCN(CCC=C(c2ccccc2)c2ccccc2)C1 (stereo not drawn) [SK&F 89976A, N-(4,4-diphenyl-3-buten-1-yl)nipecotic acid] | orally active inhibitors of GABA uptake
8 | O=C(O)C1=CCCN(CCC=C(c2ccccc2)c2ccccc2)C1 [SK&F 100330A, N-(4,4-diphenyl-3-buten-1-yl)guvacine] | orally active inhibitors of GABA uptake
9 | O=C(O)CC1CCN(CCC=C(c2ccccc2)c2ccccc2)C1 (stereo not drawn) [SK&F 100561, N-(4,4-diphenyl-3-buten-1-yl)-homo-β-proline] | orally active inhibitors of GABA uptake
10 | O=C(O)C1CCCN(CCC=C(c2ccccc2)c2cccs2)C1 (stereo not drawn) [SK&F 100604J, N-(4-phenyl-4-(2-thienyl)-3-buten-1-yl)nipecotic acid] | orally active inhibitors of GABA uptake

Same assay, conditions: background, in words; cited from earlier work

Row | SMILES | inhibition of GABA uptake from the synaptic cleft into presynaptic nerve terminals and glial cells
11 | O=C(O)C1CCCNC1 (stereo not drawn) [nipecotic acid, 3-piperidinecarboxylic acid] | well-known and potent inhibitor of GABA uptake

Tested on: not given
Test: not given
Conditions: background, in words; cited from earlier work

Row | SMILES | ability to cross the blood-brain barrier
12 | O=C(O)C1CCCNC1 (stereo not drawn) [nipecotic acid, 3-piperidinecarboxylic acid] | unable to cross the blood-brain barrier
